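Assay format: 96-well plates, 48-hour exposure. The concentration for 50% growth inhibition is given as GI50.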 Calls of active or inactive are those of the source. No stated cut-off is given here; in the data, active = GI50 up to about 1.1 µM and inactive = higher.
What was measured:
Experiment in all cases: NCI tumour cell line growth inhibition, 48 h
TK-10 = tested on: TK-10
SF-539 = tested on: SF-539
KM12 = tested on: KM12
HCT-15 = tested on: HCT-15
ACHN = tested on: ACHN
A549 = tested on: A549
NCI-H226 = tested on: NCI-H226
CCRF-CEM = tested on: CCRF-CEM
M14 = tested on: M14
HT-29 = tested on: HT-29
Malme-3M = tested on: Malme-3M
EKVX = tested on: EKVX
UACC-257 = tested on: UACC-257
OVCAR-3 = tested on: OVCAR-3
786-0 = tested on: 786-0
UACC-62 = tested on: UACC-62
A498 = tested on: A498
SK-MEL-5 = tested on: SK-MEL-5

SMILES	GI50 (TK-10)	GI50 (SF-539)	GI50 (KM12)	GI50 (HCT-15) [µM]	GI50 (ACHN)	GI50 (A549)	GI50 (NCI-H226)	GI50 (CCRF-CEM)	GI50 (M14)	GI50 (HT-29)	GI50 (Malme-3M)	GI50 (EKVX)	GI50 (UACC-257)	GI50 (OVCAR-3)	GI50 (786-0)	GI50 (UACC-62)	GI50 (A498)	GI50 (SK-MEL-5)
CNc1ccc([N+](=O)[O-])c2c(NCCCN(C)C)ccnc12	> 100 µM (inactive)	> 100 µM (inactive)	> 100 µM (inactive)	> 100	> 100 µM (inactive)	> 100 µM (inactive)	> 100 µM (inactive)	> 100 µM (inactive)	> 100 µM (inactive)	> 100 µM (inactive)	> 100 µM (inactive)	> 100 µM (inactive)	> 100 µM (inactive)	> 100 µM (inactive)	> 100 µM (inactive)	–	–	–
CCOC(=O)c1ccc(/C(C)=N/NC(N)=S)cc1	> 100 µM (inactive)	> 100 µM (inactive)	–	> 100	> 100 µM (inactive)	> 100 µM (inactive)	–	> 100 µM (inactive)	> 100 µM (inactive)	–	–	2.74 µM (inactive)	–	> 100 µM (inactive)	> 100 µM (inactive)	> 100 µM (inactive)	> 100 µM (inactive)	> 100 µM (inactive)
CCCCOCN/C(N)=N/C#N	> 100 µM (inactive)	> 100 µM (inactive)	71.4 µM (inactive)	21.9	> 100 µM (inactive)	> 100 µM (inactive)	> 100 µM (inactive)	–	> 100 µM (inactive)	> 100 µM (inactive)	> 100 µM (inactive)	> 100 µM (inactive)	> 100 µM (inactive)	> 100 µM (inactive)	33.9 µM (inactive)	> 100 µM (inactive)	> 100 µM (inactive)	> 100 µM (inactive)
O=C(/C=C(\O)C(=O)O)/C=C(\O)c1ccccc1	> 4.65 µM (inactive)	–	–	> 4.65	> 4.65 µM (inactive)	> 4.65 µM (inactive)	> 4.65 µM (inactive)	> 4.65 µM (inactive)	> 100 µM (inactive)	> 4.65 µM (inactive)	–	> 4.65 µM (inactive)	> 4.65 µM (inactive)	> 4.65 µM (inactive)	> 100 µM (inactive)	> 4.65 µM (inactive)	> 4.65 µM (inactive)	–
c1ccc(C2N3CCCCC3[C@@H]3c4[nH]c5ccccc5c4CCN23)nc1 (stereo not given in full)	> 100 µM (inactive)	> 100 µM (inactive)	–	> 100	> 100 µM (inactive)	> 100 µM (inactive)	–	> 100 µM (inactive)	> 100 µM (inactive)	> 100 µM (inactive)	–	> 100 µM (inactive)	> 100 µM (inactive)	> 100 µM (inactive)	> 100 µM (inactive)	96.8 µM (inactive)	> 100 µM (inactive)	> 100 µM (inactive)
CCOC(=O)NC(=O)c1cn(CCCOC(=O)CCCCCCCCCCC(=O)OCCCn2cc(C(=O)NC(=O)OCC)c(=O)[nH]c2=O)c(=O)[nH]c1=O	> 100 µM (inactive)	> 100 µM (inactive)	> 100 µM (inactive)	–	> 100 µM (inactive)	> 100 µM (inactive)	> 100 µM (inactive)	> 100 µM (inactive)	> 100 µM (inactive)	> 100 µM (inactive)	> 100 µM (inactive)	> 100 µM (inactive)	> 100 µM (inactive)	> 100 µM (inactive)	> 100 µM (inactive)	> 100 µM (inactive)	–	> 100 µM (inactive)
O=[N+]([O-])C1Cc2ccccc2OC1c1ccccc1 (stereo not given)	77.1 µM (inactive)	31.2 µM (inactive)	> 100 µM (inactive)	–	66.7 µM (inactive)	> 100 µM (inactive)	> 100 µM (inactive)	30.8 µM (inactive)	> 100 µM (inactive)	83.8 µM (inactive)	> 100 µM (inactive)	> 100 µM (inactive)	> 100 µM (inactive)	> 100 µM (inactive)	35.3 µM (inactive)	55.3 µM (inactive)	> 100 µM (inactive)	> 100 µM (inactive)
FC(F)(F)P1C2C=CC(CC2)C1(F)F (stereo not given)	> 100 µM (inactive)	> 100 µM (inactive)	> 100 µM (inactive)	> 100	> 100 µM (inactive)	> 100 µM (inactive)	> 100 µM (inactive)	> 100 µM (inactive)	> 100 µM (inactive)	> 100 µM (inactive)	> 100 µM (inactive)	> 100 µM (inactive)	> 100 µM (inactive)	–	> 100 µM (inactive)	> 100 µM (inactive)	> 100 µM (inactive)	> 100 µM (inactive)
CCOC(=O)[C@@]12C(C)=CC(=O)O[C@]1(C)C1C(=O)NC(=O)C12 (stereo not given in full)	> 100 µM (inactive)	> 100 µM (inactive)	> 100 µM (inactive)	–	> 100 µM (inactive)	> 100 µM (inactive)	7.16 µM (inactive)	> 100 µM (inactive)	> 100 µM (inactive)	> 100 µM (inactive)	> 100 µM (inactive)	> 100 µM (inactive)	> 100 µM (inactive)	34.4 µM (inactive)	> 100 µM (inactive)	17.4 µM (inactive)	> 100 µM (inactive)	> 100 µM (inactive)
O=[N+]([O-])c1ccccc1C1N2CCCCC2[C@@H]2c3[nH]c4ccccc4c3CCN12 (stereo not given in full)	16.5 µM (inactive)	12.2 µM (inactive)	–	10.9	12.4 µM (inactive)	9.84 µM (inactive)	–	10.4 µM (inactive)	13.7 µM (inactive)	7.53 µM (inactive)	–	20.7 µM (inactive)	13.7 µM (inactive)	19.8 µM (inactive)	16.1 µM (inactive)	3.78 µM (inactive)	12.6 µM (inactive)	13.4 µM (inactive)
CCCCCCCCCC1CC(=O)OC2=C1C(=O)CCC2 (stereo not given)	> 100 µM (inactive)	> 100 µM (inactive)	> 100 µM (inactive)	–	> 100 µM (inactive)	> 100 µM (inactive)	> 100 µM (inactive)	> 100 µM (inactive)	> 100 µM (inactive)	> 100 µM (inactive)	> 100 µM (inactive)	> 100 µM (inactive)	> 100 µM (inactive)	> 100 µM (inactive)	> 100 µM (inactive)	> 100 µM (inactive)	–	> 100 µM (inactive)
O=[N+]([O-])c1cccc(C(O)/C(=N/Nc2ccccc2)C2Nc3ccc([N+](=O)[O-])cc3N=C2O)c1 (stereo not given)	> 100 µM (inactive)	13.2 µM (inactive)	27.8 µM (inactive)	14.4	24.5 µM (inactive)	41.2 µM (inactive)	> 100 µM (inactive)	81.8 µM (inactive)	42.1 µM (inactive)	50.9 µM (inactive)	95.9 µM (inactive)	> 100 µM (inactive)	> 100 µM (inactive)	66.7 µM (inactive)	> 100 µM (inactive)	17.4 µM (inactive)	–	16.9 µM (inactive)
COC(=O)CCC(=O)C(C#N)c1ccc(Cl)cc1Cl (stereo not given)	> 100 µM (inactive)	> 100 µM (inactive)	> 100 µM (inactive)	> 100	> 100 µM (inactive)	> 100 µM (inactive)	> 100 µM (inactive)	> 100 µM (inactive)	> 100 µM (inactive)	4.97 µM (inactive)	> 100 µM (inactive)	> 100 µM (inactive)	> 100 µM (inactive)	> 100 µM (inactive)	> 100 µM (inactive)	> 100 µM (inactive)	–	–
COC(=O)C1=C(c2ccc3c(c2)OCO3)OC(c2cc(OC)c(OC)c(OC)c2)C1 (stereo not given)	5.2 µM (inactive)	5.11 µM (inactive)	–	0.664	6.98 µM (inactive)	5.77 µM (inactive)	3.81 µM (inactive)	3.88 µM (inactive)	3.53 µM (inactive)	1.29 µM (inactive)	4.74 µM (inactive)	2.82 µM (inactive)	7.18 µM (inactive)	1.43 µM (inactive)	3.61 µM (inactive)	1.81 µM (inactive)	2.43 µM (inactive)	2.49 µM (inactive)
CC(C)OP(=O)(OC(C)C)/C(N)=N/Nc1ccc([N+](=O)[O-])cc1	27 µM (inactive)	> 100 µM (inactive)	> 100 µM (inactive)	> 100	69.8 µM (inactive)	76.2 µM (inactive)	53 µM (inactive)	98.2 µM (inactive)	> 100 µM (inactive)	–	> 100 µM (inactive)	25.4 µM (inactive)	25.1 µM (inactive)	> 100 µM (inactive)	> 100 µM (inactive)	83 µM (inactive)	–	60.1 µM (inactive)
O=[N+]([O-])c1ccc(C2=Nc3ccccc3[S+]([O-])C(c3ccccc3)C2)cc1 (stereo not given)	27 µM (inactive)	20.2 µM (inactive)	15.3 µM (inactive)	27	21.4 µM (inactive)	27.9 µM (inactive)	16.1 µM (inactive)	15.1 µM (inactive)	20.2 µM (inactive)	19.1 µM (inactive)	44.8 µM (inactive)	22.4 µM (inactive)	22.1 µM (inactive)	17.5 µM (inactive)	17.5 µM (inactive)	13.6 µM (inactive)	–	> 10 µM (inactive)
O=C(c1ccccc1)c1ccc2cccc(O)c2n1	94.8 µM (inactive)	32.6 µM (inactive)	74.5 µM (inactive)	23.6	37.5 µM (inactive)	33 µM (inactive)	38.5 µM (inactive)	1.19 µM (inactive)	13.8 µM (inactive)	–	36.1 µM (inactive)	24.4 µM (inactive)	–	50.8 µM (inactive)	15.8 µM (inactive)	33.1 µM (inactive)	–	22.9 µM (inactive)
